Test results as given in patent publication US20210121426A1, “BLOOD PURIFICATION BY ALKALINIZING AGENT” (TOHOKU UNIVERSITY, priority 2017, published 2021).
Marks after values point to notes of the source that are not given here.

Tests used:
[1] = system: hippuric acid; experiment: Human clinical trial in CKD patients: hippuric acid in plasma and early morning urine (LC-MS/MS); type: in vivo; parameters: key to Influence on concentration of HA / Influence on HA U/P ratio: Excellent effects: ◯; Poor effects: X; No significant difference: —; (◯): whether or not there is an effect of promoting excretion of indoxyl sulfate into the urine cannot be determined
Description: (§1) 1. […] Patients were assigned to each group so that age, sex, presence of diabetes, and eGFR were not biased. Each group was treated according to the “CKD medical care guide-summary of treatment” (hereinafter referred to as standard treatment).
(§2) An alkalinizing agent was not administered to the control group. […] A pH of early morning urine was controlled over time so that the dosage could be increased up to 6 tablets, 3 times a day (morning, noon, evening) as needed according to the discretion of the physician in cases where a pH of early morning urine was less than pH 6.5. To the group B, 3 tablets a day in which each tablet contained 500 mg of sodium bicarbonate were orally administered 3 times a day (morning, noon, evening) for 24 weeks. A pH of early morning urine was controlled over time so that the dosage could be increased up to 6 tablets, 3 times a day (morning, noon, evening) as needed according to the discretion of the physician in cases where a pH of early morning urine was less than pH 6.5.
(§3) Early morning urine and blood were collected before the start of administration, and 6 weeks, 12 weeks, and 24 weeks after the start of administration, and each specimen was stored at −80° C. Methods used in the present field for indoxyl sulfate, p-cresyl sulfate, phenylacetyl-L-glutamine, hippuric acid, and argininosuccinic acid in urine and blood (Sato, E., et. al., Metabolic alteration by indoxyl sulfate in skeletal muscle induce uremic sarcopenia in chronic kidney disease., Sci Rep. 2016 Nov. 10; 6:36618. doi: 10.1038/srep36618, and the like) were referred to, and quantitative analysis was performed using the following liquid chromatography triple quadrupole mass spectrometer (LC-MS/MS).
For LC, NANOSPACE SI-2 (manufactured by Shiseido) was used, and […] MGM was selected as the analytical column.
For MS, TSQ Quantiva (manufactured by Thermo Fisher Scientific Co., Ltd.) was used, and five compounds were ionized in the negative mode and detected using the Selected Reaction Monitoring method. The quantitative value was calculated using a calibration curve prepared with a standard solution of each compound.
(§4) For statistical analysis, the Mann-Whitney test was used for comparison between groups, and the Wilcoxon test was used for comparison of changes over time. The Pearson test was used for correlation.
Then, the average value and SD of each group were calculated for (i) to (ix) above. For each of (iv) to (ix) above, the average value and SD of each group were calculated for all data of 6 weeks, 12 weeks, and 24 weeks after the start of administration in each group.

[2] = Human clinical trial: urinary specific gravity of early morning urine (urine hydrometer); type: in vivo
Description: as §1, §2
In addition, amounts of change in each urinary specific gravity after 6, 12, and 24 weeks after the start of the test are respectively shown as a % relative value with respect to each urinary specific gravity before the start of the test, and a difference from urinary specific gravity before the start of the teste in Tables 11-0-2 and 11-0-3. The urinary specific gravity was measured using a urine hydrometer (PAL-09S, Atago Co., Ltd., Tokyo, Japan).

[3] = system: β2-microglobulin; experiment: Human clinical trial: urinary β2-microglobulin (latex agglutination method); type: in vivo
Description: as §1, §2, §3
In addition, the amount of urinary β2-microglobulin was measured by latex agglutination method using the LZ test “Eiken” β2-M and LZ-β2-M standard U “Eiken” (Eiken Chemical Co., Tokyo, Japan). Furthermore, the amount of cystatin C in the serum was measured by a colloidal gold agglutination method using Nescoat GC Cystatin C (Nm) (Alfresa Pharma, Osaka, Japan).
as §4

[4] = system: indoxyl sulfate; experiment: Urine indoxyl sulfate (IS) corrected by urine osmotic pressure; type: in vivo, human
Text: Medical Examination, Vol. 44, No. 1, 1995, pages 79-83 by Tetsuo Aoki et al. was referred to. In addition, a urine osmotic pressure 770 mOsm/kg was converted into a reference value.
Osmotic pressure correction value (unit/500 mOsm·P)=actual measurement value×500/osmotic pressure value

[5] = 0 W, before the start of administration
[6] = 6-24 W, all data of 6, 12 and 24 weeks

O=C([O-])O.[Na+] [Bicarbonate, sodium bicarbonate]
Hippuric Acid-Urine/Plasma ratio [1, 5]: 304.5 ± 361.8 | Plasma Hippuric Acid [1, 5]: 742 ± 706 ng/mL | Urine Hippuric Acid (early morning urine) [1, 5]: 109249 ± 96133 ng/mL | Hippuric Acid-Urine/Plasma ratio [1, 6]: 265.8 ± 812.9 | Hippuric Acid-Urine/Plasma ratio, change from week 0 [1, 6]: −50.2 ± 688.3^b | Plasma Hippuric Acid [1, 6]: 1091 ± 991 ng/mL | Plasma Hippuric Acid, change from week 0 [1, 6]: 342.1 ± 838.5 ^e ng/mL | Urine Hippuric Acid (early morning urine) [1, 6]: 103027 ± 76475 ng/mL | Urine Hippuric Acid, change from week 0 [1, 6]: -6221 ± 73493 ng/mL | Hippuric Acid-Urine/Plasma ratio ([1]; 6 W): 148.7 ± 119.2^f | Hippuric Acid-Urine/Plasma ratio, change from week 0 ([1]; 6 W): −155.8 ± 312.2^a | Plasma Hippuric Acid ([1]; 6 W): 809 ± 496 ng/mL | Plasma Hippuric Acid, change from week 0 ([1]; 6 W): 66.6 ± 681.8 ng/mL | Urine Hippuric Acid (early morning urine) ([1]; 6 W): 98283 ± 80730 ng/mL | Urine Hippuric Acid, change from week 0 ([1]; 6 W): -10966 ± 75133 ng/mL | Hippuric Acid-Urine/Plasma ratio ([1]; 12 W): 151.8 ± 115.8 | Hippuric Acid-Urine/Plasma ratio, change from week 0 ([1]; 12 W): −161.2 ± 302.1 | Plasma Hippuric Acid ([1]; 12 W): 994 ± 806 ng/mL | Plasma Hippuric Acid, change from week 0 ([1]; 12 W): 230.0 ± 655.6 ng/mL | Urine Hippuric Acid (early morning urine) ([1]; 12 W): 96346 ± 70315 ng/mL | Urine Hippuric Acid, change from week 0 ([1]; 12 W): -12903 ± 61236 ng/mL | Hippuric Acid-Urine/Plasma ratio ([1]; 24 W): 523.0 ± 1438 | Hippuric Acid-Urine/Plasma ratio, change from week 0 ([1]; 24 W): 191.1 ± 1147 | Plasma Hippuric Acid ([1]; 24 W): 1465 ± 1387^c ng/mL | Plasma Hippuric Acid, change from week 0 ([1]; 24 W): 722.3 ± 1023 ^c ng/mL | Urine Hippuric Acid (early morning urine) ([1]; 24 W): 114453 ± 81562 ng/mL | Urine Hippuric Acid, change from week 0 ([1]; 24 W): 5204 ± 85546 ng/mL | Influence on concentration of HA ([1]; Plasma, comparison with Cont): X | Influence on concentration of HA ([1]; Plasma, comparison with reference drug): — | Influence on HA U/P ratio ([1]; comparison with Cont): X | Influence on HA U/P ratio ([1]; comparison with reference drug): — | Influence on concentration of HA ([1]; Urine, comparison with Cont): — | Influence on concentration of HA ([1]; Urine, comparison with reference drug): — | Urine Specific Gravity ([2]; 0 W, before the start of the test): 1.014 ± 0.007 | Urine Specific Gravity ([2]; 6-24 W, all data): 1.014 ± 0.006 | Urine Specific Gravity (% Relative value vs week 0) ([2]; 6-24 W, all data): 100.00 ± 0.67% | Urine Specific Gravity, difference vs week 0 ([2]; 6-24 W, all data): 0.0002 ± 0.0058^b | Urine Specific Gravity ([2]; 6 W): 1.014 ± 0.006 | Urine Specific Gravity (% Relative value vs week 0) ([2]; 6 W): 100.02 ± 0.53% | Urine Specific Gravity, difference vs week 0 ([2]; 6 W): 0.0002 ± 0.0054 | Urine Specific Gravity ([2]; 12 W): 1.013 ± 0.005 | Urine Specific Gravity (% Relative value vs week 0) ([2]; 12 W): 99.89 ± 0.58^e % | Urine Specific Gravity, difference vs week 0 ([2]; 12 W): −0.0012 ± 0.0058^e | Urine Specific Gravity ([2]; 24 W): 1.016 ± 0.007 | Urine Specific Gravity (% Relative value vs week 0) ([2]; 24 W): 100.17 ± 0.61% | Urine Specific Gravity, difference vs week 0 ([2]; 24 W): 0.0017 ± 0.0062 | urinary specific gravity value ([2]; over 6, 12 and 24 weeks, compared with the control group): maintained or increased | Urine B2-microglobulin [3, 5]: 99.0 ± 62.8 µg/L | Urine B2-microglobulin [3, 6]: 206.2 ± 255.8^a μg/L | Urine B2-microglobulin, change from week 0 [3, 6]: 148.3 ± 258.4 ^b ug/L | Urine B2-microglobulin ([3]; 6 W): 216.3 ± 228.2^e μg/L | Urine B2-microglobulin, change from week 0 ([3]; 6 W): 117.3 ± 220.7 µg/L | Urine B2-microglobulin ([3]; 12 W): 264.5 ± 301.9 µg/L | Urine B2-microglobulin, change from week 0 ([3]; 12 W): 165.5 ± 282.0^ ug/L | Urine B2-microglobulin ([3]; 24 W): 261.0 ± 301.5^c,f μg/L | Urine B2-microglobulin, change from week 0 ([3]; 24 W): 162.0 ± 281.8 ^c ug/L | kidney tubular damage (kidney proximal tubular damage) associated with progression of the stage ([3]; from urinary β2-microglobulin): did not suppress | Urine IS, osmotic pressure corrected ([4]; 0 W): 87.9 ± 40.0 μg · mL^−1/770 mOsm · P | Urine IS, osmotic pressure corrected ([4]; 6-24 W, all data): 77.0 ± 42.5 μg · mL^−1/770 mOsm · P | Urine IS, osmotic pressure corrected, % Relative value vs week 0 ([4]; 6-24 W, all data): 93 ± 49% | Urine IS, osmotic pressure corrected ([4]; 6 W): 82.9 ± 44.6 μg · mL^−1/770 mOsm · P | Urine IS, osmotic pressure corrected, % Relative value vs week 0 ([4]; 6 W): 98 ± 30% | Urine IS, osmotic pressure corrected, % Relative value vs week 0 ([4]; 12 W): 77 ± 39% | Urine IS, osmotic pressure corrected ([4]; 24 W): 84.4 ± 48.4 μg · mL^−1/770 mOsm · P | Urine IS, osmotic pressure corrected, % Relative value vs week 0 ([4]; 24 W): 104 ± 68%
